Results published in paper PMC2803436 (Current Chemical Genomics, 2008).
Non-standard residues stand in square brackets, D forms with d. Residues, ends and D or L forms follow the SMILES beside them. Nle = CCCC[C@H](N)C(=O)O

Assays:
TEV protease [1] = experiment: Initial tests of established inhibitors on TEV protease; assay type: biochemical, Tobacco Etch Virus; conditions: for Inhibition of TEV protease by known inhibitors of cysteine proteases: data not shown
TEV protease [2] = biological target: T1, TEV protease (Tobacco etch virus, UniProt P04517); experiment: CP234-Luc/ENLYFQC verification assay; conditions: SCH HBr and L-DOPA tested from 0 – 1 mM; NF-023 and ATA from 0 – 0.2 mM
T1 sequence (P04517 2038-2279): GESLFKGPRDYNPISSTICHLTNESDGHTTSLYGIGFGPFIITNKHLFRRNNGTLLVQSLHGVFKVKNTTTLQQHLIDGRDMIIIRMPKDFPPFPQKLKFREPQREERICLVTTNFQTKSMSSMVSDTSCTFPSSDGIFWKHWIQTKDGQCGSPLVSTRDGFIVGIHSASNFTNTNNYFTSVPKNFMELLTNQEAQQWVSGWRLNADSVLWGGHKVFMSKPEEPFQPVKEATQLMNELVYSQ

TEV protease [3] = biological target: T1, TEV protease; experiment: LOPAC1280 library screen using the CP234-Luc/ENLYFQC protease assay; assay type: biochemical; conditions: compounds at 100 µM, 15 minutes at room temperature
TEV protease [4] = biological target: T1, TEV protease; experiment: Protein fusion; assay type: biochemical; conditions: tested from 0 – 0.1 mM

| Compound | Inhibition of TEV protease by known inhibitors of cysteine proteases (TEV protease [1]) | Inhibition of TEV protease cleavage in re-test, CP234-Luc/ENLYFQC assay (TEV protease [2]) | also measured |
| --- | --- | --- | --- |
| CCCC[C@@H](C=O)NC(=O)[C@H](CC(C)C)NC(=O)[C@H](CC(C)C)NC(C)=O [ALLN, N-acetyl-Leu-Leu-NIe-CHO] (Ac-Leu-Leu-[Nle]-aldehyde) | resistant |  |  |
| O=C(O)C1=CC(=C(c2ccc(O)c(C(=O)O)c2)c2ccc(O)c(C(=O)O)c2)C=CC1=O [ATA, aurintricarboxylic acid] |  | confirmed | TEV protease inhibition (cleavage of CP234-Luc/ENLYFQC) in primary screen (TEV protease [3]): greater than 60% |
| Br.CN=c1nc(-c2ccccc2)n(-c2ccccc2)s1 [SCH HBr, N-(2,3-diphenyl-1,2,4-thiadiazol-5-(2H)-ylidene)methanamine hydrobromide] |  | did not inhibit | Inhibition of TEV protease cleavage in re-test, protein fusion cleavage assay (TEV protease [4]): did not inhibit |
| 2,5-dihydroxy-DL-tyrosine [L-DOPA] |  | did not inhibit | Inhibition of TEV protease cleavage in re-test, protein fusion cleavage assay (TEV protease [4]): did not inhibit |
| CCOC(=O)[C@H]1O[C@@H]1C(=O)N[C@@H](CC(C)C)C(=O)NCCC(C)C (relative stereo) [EST, (2S,3S)-trans-Epoxysuccinyl-L-leucylamido-3-methylbutane Ethyl Ester] | resistant |  |  |
| [Zn] [zinc] |  |  | Inhibition of TEV protease (TEV protease [1]; 5 mM, also frequently precipitated the proteins out of solution): effectively inhibited |
| CC(C)C[C@H](NC(=O)[C@H]1O[C@@H]1C(=O)O)C(=O)NCCCCN=C(N)N [E-64] | resistant |  |  |
